From ChEMBL document CHEMBL1121623, “Thrombin inhibitors. 3. Carboxyl-containing amide derivatives of N alpha-substituted L-arginine” (J Med Chem, 1980) come the findings set out here.

In this assay the target is Prothrombin (Bos taurus, UniProt P00735). Put plainly: Concentration at which the clotting time was prolonged by twice that of the control by inhibiting thrombin. The note with it: read-out: I50. The assay is classed as functional.

SMILES strings stand for the structures. pIC50: −log10 of the molar value.

With `CCC1CCN(C(=O)C(CCCN=C(N)N)NS(=O)(=O)c2ccc3cc(OC)c(OC)cc3c2)C(C(=O)O)C1` (centres undefined), the pIC50 is 6.60.

On to `N=C(N)NCCCC(NS(=O)(=O)c1cccc2c1CCCC2)C(=O)N(CC(=O)O)CC1CCCO1` (centres undefined), for which the pIC50 is 5.19.

On to `COCCN(CC(=O)O)C(=O)C(CCCN=C(N)N)NS(=O)(=O)c1ccc2cc3c(cc2c1)OCCO3` (centres undefined), for which the pIC50 is 4.24.

Turning to `COc1cc2ccc(S(=O)(=O)NC(CCCN=C(N)N)C(=O)N3CCc4ccccc4C3C(=O)O)cc2cc1OC` (centres undefined), the pIC50 is 6.15.
